Source: ChEMBL document CHEMBL1938249, “Synthesis, antimalarial activity, and structure-activity relationship of 7-(2-phenoxyethoxy)-4(1H)-quinolones” (J Med Chem, 2011)

Experiments:
[1] = tested on: Plasmodium falciparum; assay: Antimalarial activity against chloroquine-, pyrimethamine-resistant ring stage Plasmodium falciparum W2 infected in human A positive erythrocytes after 72 hrs by SYBR green 1-based fluorescence assay; assay type: functional, organism-based; conditions: W2, 72 h
[2] = tested on: Plasmodium falciparum; assay: Antimalarial activity against chloroquine-, mefloquine-, pyrimethamine-,atovaquone-resistant ring stage Plasmodium falciparum TM90-C2B infected in human A positive erythrocytes after 72 hrs by SYBR green 1-based fluorescence assay; assay type: functional, organism-based
[3] = tested on: Plasmodium falciparum; assay: Resistance ratio, ratio of EC50 for chloroquine-, mefloquine, pyrimethamine-,atovaquone-resistant ring stage Plasmodium falciparum TM90-C2B to EC50 for chloroquine-, pyrimethamine-resistant Plasmodium falciparum W2; assay type: functional
[4] = tested on: J774; assay: Antiproliferative against mouse J774 cells after 72 hrs by Cell titer assay; assay type: cell-based; conditions: J774, 72 h
[5] = tested on: J774; assay: Antiproliferative against mouse J774 cells at < 20 uM after 72 hrs by Cell titer assay; assay type: cell-based; conditions: j774, 72 h
[6] = Cytotoxicity index, ratio of EC50 for mouse J774 cells to EC50 for chloroquine-, mefloquine, pyrimethamine-,atovaquone-resistant ring stage Plasmodium falciparum TM90-C2B; assay type: cell-based; conditions: read-out: Ratio EC50

| SMILES | EC50 [1] | EC50 [2] | Ratio EC50 [3] | EC50 [4] | Activity [5] | selectivity ratio [6] |
| --- | --- | --- | --- | --- | --- | --- |
| CCCCc1cc2c(=O)c(-c3ccc(C(F)(F)F)cc3F)c(C)[nH]c2cc1OCCOc1ccccc1 | 27.9 nM | 30.9 nM | 1.11 | 19000 nM | Non-toxic | ≥ 100 |
| CCCCc1cc2c(=O)c(C(=O)OC)c[nH]c2cc1OCCOc1ccccc1 | 0.05 nM | 11.2 nM | 223 | 46000 nM | Non-toxic | ≥ 100 |
| COC(=O)c1c[nH]c2cc(OC)c(Cl)cc2c1=O | 134 nM | 765 nM | 5.7 | 37000 nM | Non-toxic | ≥ 100 |
| CCCCc1cc2c(=O)cc(C)[nH]c2cc1OCCOc1ccccc1 | 216 nM | 44.1 nM | 0.2 | 28000 nM | Non-toxic | ≥ 100 |
| CCCCc1cc2c(=O)c(CC)c(C)[nH]c2cc1OCCOc1ccccc1 | 1.92 nM | 0.15 nM | 0.08 | 1000 nM | Non-toxic | ≥ 100 |
| CCc1c(C)[nH]c2cc(OCCOc3ccccc3)ccc2c1=O | 104 nM | 71.3 nM | 0.79 | 4000 nM | Non-toxic | ≥ 100 |
| CCc1c(C)[nH]c2cc(OCCOc3ccccc3)c(Cl)cc2c1=O | 256 nM | 72.1 nM | 0.28 | > 28000 nM | Non-toxic | ≥ 100 |
| CCc1c(C)[nH]c2cc(OCCOc3ccccc3)c(Br)cc2c1=O | 203 nM | 43.5 nM | 0.21 | > 25000 nM | Non-toxic | ≥ 100 |
| CCc1c(C)[nH]c2cc(OCCOc3ccccc3)c(C)cc2c1=O | 255 nM | 27.7 nM | 0.11 | > 30000 nM | Non-toxic | ≥ 100 |
| CCc1c(C)[nH]c2cc(OCCOc3ccccc3)c(OC)cc2c1=O | 184 nM | 19.5 nM | 0.11 | > 29000 nM | Non-toxic | ≥ 100 |
| CCc1c(C)[nH]c2cc(OCOC)c(Cl)cc2c1=O | 908 nM | 79.7 nM | 0.09 | 19000 nM | Non-toxic | ≥ 100 |
| CCc1c(C)[nH]c2cc(OCCCO)c(Cl)cc2c1=O | 8450 nM | 776 nM | 0.09 | – | Non-toxic | ≥ 100 |
| CCc1c(C)[nH]c2cc(OCCCOC(=O)C(CC)C(C)=O)c(Cl)cc2c1=O (stereo unspecified) | 6130 nM | 6130 nM | 1 | – | Non-toxic | ≥ 100 |
| CCc1c(C)[nH]c2cc(OCCN3CCOCC3)c(Cl)cc2c1=O | 5090 nM | 726 nM | 0.14 | – | Non-toxic | ≥ 100 |
